According to publication PMC9363195, “Preclinical Pharmacokinetics, Biodistribution, and Acute Toxicity Evaluation of Caerin 1.9 Peptide in Sprague Dawley Rats” (Evidence-based Complementary and Alternative Medicine : eCAM, 2022):
Peptide text beside a SMILES is read from it.

Test system: SD rats
Assay: Hematology and coagulation analysis in acute toxicity study
Type: in vivo, Sprague Dawley rats
Details: day 15, mean ± SD
Experimental: Forty SD rats (20 males and 20 females) were randomly divided into 4 groups (Figure 1). All rats were given F3 once on the day of the experiment.
Twelve SD rats (6 males, 6 females) were given a daily subcutaneous injection of F3 at a dose of 10.0 mg/kg for consecutive 14 days. The first day of administration was recorded as day 1.
For 14 days, the body weight was measured before F3 administration on the first day of the experiment and once a week thereafter, with additional measurements on the day before and on the day of the planned autopsy. Food intake was recorded once a week. The rats were anesthetized by inhalation of 70% CO2/30% O2 before dissection, and blood samples were taken for hematology and biochemical analysis. The collected tissue was weighed and preserved for pathological examination.
Blood smears were used to investigate the morphology of basophils (ABBASO), eosinophils (ABEOS), neutrophils (ABNEUT), monocytes (ABMONO), and lymphocytes (ABLYMP) in the peripheral blood. When white blood cell classification and reticulocyte count cannot be calculated directly by ADVIA 2120i, they were manually counted and calculated following the procedure published previously. The number of platelets was determined manually when they could not be counted mechanically because of coagulation. Wright-Giemsa staining was used to prepare blood smears for cell morphology.
Liver and renal functions were measured with special attention to alanine aminotransferase (ALT), aspartate aminotransferase (AST), alkaline phosphatase (ALP), serum creatinine, total bilirubin, and urea levels. In addition, the levels of glucose, calcium, total protein, and albumin in serum samples were measured. The blood biochemical test, hematology test, and coagulation function test were detected by Hitachi 7180 automatic biochemical analyzer, Siemens ADVIA 2120i hematology analyzer, and Stargo Emo Express Hemagglutination analyzer, respectively.

[1] = female SD rats, s.c. 10.0 mg/kg daily x14 d, n=6
[2] = female SD rats, single s.c. 1.0 mg/kg, n=5
[3] = female SD rats, single s.c. 10.0 mg/kg, n=5
[4] = female SD rats, single s.c. 100.0 mg/kg, n=5
[5] = male SD rats, s.c. 10.0 mg/kg daily x14 d, n=6
[6] = male SD rats, single s.c. 1.0 mg/kg, n=5
[7] = male SD rats, single s.c. 10.0 mg/kg, n=5
[8] = male SD rats, single s.c. 100.0 mg/kg, n=5

With `CC[C@H](C)[C@H](NC(=O)[C@H](CO)NC(=O)CNC(=O)[C@H](CC(C)C)NC(=O)[C@@H](NC(=O)CNC(=O)[C@H](Cc1ccccc1)NC(=O)[C@H](CC(C)C)NC(=O)CN)C(C)C)C(=O)N[C@@H](C)C(=O)N[C@@H](CCCCN)C(=O)N[C@@H](Cc1c[nH]cn1)C(=O)N[C@H](C(=O)N[C@@H](CC(C)C)C(=O)N1CCC[C@H]1C(=O)N[C@@H](Cc1c[nH]cn1)C(=O)N[C@H](C(=O)N[C@H](C(=O)N1CCC[C@H]1C(=O)N[C@H](C(=O)N[C@H](C(=O)N[C@@H](C)C(=O)N[C@@H](CCC(=O)O)C(=O)N[C@@H](CCCCN)C(=O)N[C@@H](CC(C)C)C(N)=O)[C@@H](C)CC)C(C)C)C(C)C)C(C)C)C(C)C` [F3, Caerin 1.9] (H-GLFGVLGSIAKHVLPHVVPVIAEKL-NH2) the “ABBASO (basophils)” value [1] was 0.01 ± 0 10^9/L, the “ABEOS (eosinophils)” value [1] was 0.16 ± 0.07 10^9/L and the “ABLYMP (lymphocytes)” value [1] was 7.64 ± 1.61 10^9/L. The “ABMONO (monocytes)” value [1] was 0.23 ± 0.08 10^9/L, the “ABNEUT (neutrophils)” value [1] was 2.53 ± 0.45 10^9/L and the ABRETIC [1] was 273.87 ± 31.75 10^9/L. The APTT [1] was 14.9 ± 0.28 s, the HCT [1] was 38.2 ± 1.34% and the HGB [1] was 11.62 ± 0.50 g/dL. It also gave an MCH [1] of 19.25 ± 0.69 pg, an MCHC [1] of 30.4 ± 0.46 g/dL and an MCV [1] of 63.38 ± 2.38 fL. The MPV [1] was 8.58 ± 0.42 fL, the PLT [1] was 1357.67 ± 169.65 10^9/L and the PT [1] was 20.45 ± 1.16 s. The RBC [1] was 6.04 ± 0.37 10^12/L, the WBC [1] was 10.67 ± 1.900 10^9/L and the “ABBASO (basophils)” value [2] was 0.006 ± 0.005 10^9/L. The “ABEOS (eosinophils)” value [2] was 0.072 ± 0.034 10^9/L, the “ABLYMP (lymphocytes)” value [2] was 5.956 ± 2.336 10^9/L and the “ABMONO (monocytes)” value [2] was 0.228 ± 0.234 10^9/L. For the same molecule, the “ABNEUT (neutrophils)” value [2] was 1.71 ± 1.516 10^9/L, the ABRETIC [2] was 226.5 ± 33.41 10^9/L and the APTT [2] was 16.94 ± 1.15 s. The HCT [2] was 45.34 ± 3.13%, the HGB [2] was 14.44 ± 1.06 g/dL and the MCH [2] was 19.06 ± 0.27 pg. The MCHC [2] was 31.82 ± 0.47 g/dL, the MCV [2] was 59.86 ± 0.56 fL and the MPV [2] was 9.02 ± 0.30 fL. The PLT [2] was 1081.6 ± 83.2 10^9/L, the PT [2] was 20.06 ± 0.75 s and the RBC [2] was 7.584 ± 0.568 10^12/L. For the same molecule, the WBC [2] was 8.022 ± 3.840 10^9/L, the “ABBASO (basophils)” value [3] was 0.01 ± 0.007 10^9/L and the “ABEOS (eosinophils)” value [3] was 0.072 ± 0.032 10^9/L. The “ABLYMP (lymphocytes)” value [3] was 6.526 ± 1.92 10^9/L, the “ABMONO (monocytes)” value [3] was 0.136 ± 0.034 10^9/L and the “ABNEUT (neutrophils)” value [3] was 1.128 ± 0.308 10^9/L. The ABRETIC [3] was 192.02 ± 21.07 10^9/L, the APTT [3] was 18.24 ± 1.36 s and the HCT [3] was 46.98 ± 1.22%. It also gave an HGB [3] of 14.9 ± 0.29 g/dL, an MCH [3] of 18.78 ± 0.75 pg and an MCHC [3] of 31.76 ± 0.46 g/dL. The MCV [3] was 59.1 ± 1.71 fL, the MPV [3] was 9.28 ± 0.20 fL and the PLT [3] was 1004.4 ± 93.7 10^9/L. For the same molecule, the PT [3] was 19.44 ± 0.70 s, the RBC [3] was 7.954 ± 0.424 10^12/L and the WBC [3] was 7.922 ± 1.865 10^9/L. For the same molecule, the “ABBASO (basophils)” value [4] was 0.008 ± 0.004 10^9/L, the “ABEOS (eosinophils)” value [4] was 0.06 ± 0.031 10^9/L and the “ABLYMP (lymphocytes)” value [4] was 5.886 ± 1.807 10^9/L. For the same molecule, the “ABMONO (monocytes)” value [4] was 0.142 ± 0.094 10^9/L, the “ABNEUT (neutrophils)” value [4] was 1.148 ± 0.434 10^9/L and the ABRETIC [4] was 215.84 ± 21.41 10^9/L. The APTT [4] was 17.02 ± 1.47 s, the HCT [4] was 47.16 ± 1.49% and the HGB [4] was 14.96 ± 0.47 g/dL. For the same molecule, the MCH [4] was 18.64 ± 1 pg, the MCV [4] was 58.8 ± 2.76 fL and the MPV [4] was 9 ± 0.19 fL. The PLT [4] was 987 ± 86.1 10^9/L, the PT [4] was 19.72 ± 0.50 s and the RBC [4] was 8.042 ± 0.561 10^12/L. The WBC [4] was 7.28 ± 2.163 10^9/L, the “ABBASO (basophils)” value [5] was 0.01 ± 0.01 10^9/L and the “ABEOS (eosinophils)” value [5] was 0.17 ± 0.06 10^9/L. For the same molecule, the “ABLYMP (lymphocytes)” value [5] was 10.1 ± 2.26 10^9/L, the “ABMONO (monocytes)” value [5] was 0.34 ± 0.09 10^9/L and the “ABNEUT (neutrophils)” value [5] was 2.43 ± 1.39 10^9/L. The ABRETIC [5] was 338.6 ± 20.2 10^9/L, the APTT [5] was 16.2 ± 1.82 s and the HCT [5] was 42.18 ± 0.92%. The HGB [5] was 12.68 ± 0.34 g/dL, the MCH [5] was 18.28 ± 0.56 pg and the MCHC [5] was 30.08 ± 0.52 g/dL. The MCV [5] was 60.78 ± 1.44 fL, the MPV [5] was 9.05 ± 0.36 fL and the PLT [5] was 1421.5 ± 225.3 10^9/L. The PT [5] was 20.87 ± 1.2 s, the RBC [5] was 6.94 ± 0.18 10^12/L and the WBC [5] was 13.19 ± 3.49 10^9/L. For the same molecule, the “ABBASO (basophils)” value [6] was 0.005 ± 0.006 10^9/L, the “ABEOS (eosinophils)” value [6] was 0.088 ± 0.013 10^9/L and the “ABLYMP (lymphocytes)” value [6] was 7.695 ± 0.12 10^9/L. The “ABMONO (monocytes)” value [6] was 0.283 ± 0.124 10^9/L, the “ABNEUT (neutrophils)” value [6] was 1.185 ± 0.375 10^9/L and the ABRETIC [6] was 250.78 ± 19.32 10^9/L. For the same molecule, the APTT [6] was 17.44 ± 0.85 s, the HCT [6] was 48.4 ± 1.29% and the HGB [6] was 15.1 ± 0.41 g/dL. The MCH [6] was 18.63 ± 1.63 pg, the MCHC [6] was 31.23 ± 0.69 g/dL and the MCV [6] was 59.58 ± 4.36 fL. For the same molecule, the MPV [6] was 9.35 ± 0.33 fL, the PLT [6] was 862.8 ± 95.1 10^9/L and the PT [6] was 19.76 ± 0.92 s. The RBC [6] was 8.163 ± 0.679 10^12/L, the WBC [6] was 9.315 ± 0.344 10^9/L and the “ABBASO (basophils)” value [7] was 0.012 ± 0.008 10^9/L. For the same molecule, the “ABEOS (eosinophils)” value [7] was 0.086 ± 0.059 10^9/L, the “ABLYMP (lymphocytes)” value [7] was 10.178 ± 2.676 10^9/L and the “ABMONO (monocytes)” value [7] was 0.262 ± 0.043 10^9/L. The “ABNEUT (neutrophils)” value [7] was 1.498 ± 0.573 10^9/L, the ABRETIC [7] was 252.72 ± 25.77 10^9/L and the APTT [7] was 17.86 ± 1.84 s. The HCT [7] was 47.5 ± 1.89%, the HGB [7] was 14.72 ± 0.59 g/dL and the MCH [7] was 18.6 ± 0.49 pg. For the same molecule, the MCHC [7] was 30.98 ± 0.24 g/dL, the MCV [7] was 60.06 ± 2.02 fL and the PLT [7] was 878 ± 118.5 10^9/L. The PT [7] was 19.88 ± 0.94 s, the RBC [7] was 7.916 ± 0.383 10^12/L and the WBC [7] was 12.12 ± 2.998 10^9/L. The “ABBASO (basophils)” value [8] was 0.01 ± 0.01 10^9/L, the “ABEOS (eosinophils)” value [8] was 0.11 ± 0.062 10^9/L and the “ABLYMP (lymphocytes)” value [8] was 8.444 ± 1.168 10^9/L. The “ABMONO (monocytes)” value [8] was 0.27 ± 0.06 10^9/L, the “ABNEUT (neutrophils)” value [8] was 1.742 ± 0.58 10^9/L and the ABRETIC [8] was 270.82 ± 25.29 10^9/L. It also gave an APTT [8] of 17.34 ± 1.96 s, an HCT [8] of 47.62 ± 1.59% and an HGB [8] of 14.6 ± 0.55 g/dL. For the same molecule, the MCH [8] was 18.86 ± 0.15 pg, the MCV [8] was 61.52 ± 0.65 fL and the MPV [8] was 9.26 ± 0.24 fL. The PLT [8] was 985.4 ± 65 10^9/L, the PT [8] was 20.14 ± 0.95 s and the RBC [8] was 7.742 ± 0.232 10^12/L. For the same molecule, the WBC [8] was 10.654 ± 1.291 10^9/L.
